Results from US20100249234A1, “METHODS OF REDUCING VIRULENCE IN BACTERIA” (UWM RESEARCH FOUNDATION, INC., priority 2007, published 2010).

Columns and labels:
Type in all cases: cell-based, Dickeya dadantii 3937 (Ech3937)
dspE mRNA = experiment: qRT-PCR relative mRNA level of dspE
Protocol: (§1) Bacterial strains were grown in MM. Total RNA from the bacterial cells was isolated by using the TRI reagent method (Sigma, Mo.) and treated with Turbo DNA-free DNase kits (Ambion, TX) as described (Peng et al., 2006). An iScript cDNA Synthesis Kit (Bio-Rad, CA) was used to synthesize cDNA from 0.5 μg of treated total RNA. The Real Master Mix (Eppendorf, Westbury, N.Y.) was used for qRT-PCR reaction to quantify the cDNA level of target genes in different samples. The rplU was used as the endogenous control for data analysis. qRT-PCR data were analyzed using Relative Expression Software Tool as described (Pfaffl, M. W., Horgan, G. W., and Dempfle, L. (2002) Relative expression software tool (REST) for group-wise comparison and statistical analysis of relative expression results in real-time PCR. Nucleic Acids Res 30:e36.).

HrpN = HrpN protein expression; details: MM supplemented with 0.1 mM of PCA (FIG. 15)
Description: To further elucidate whether T3SS gene expression is mainly regulated through the HrpX/Y-HrpS-HrpL regulatory pathway, the expression of hrpA and hrpN in wild-type Ech3937 and hrpX (WPP67), hrpY (WPP92), hrpS (WPP90), and hrpL (WPP96) mutants in MM were examined. […] Similar expression of hrpA and hrpN was observed among WPP67, WPP92, WPP90 and WPP96 carrying phrpA and phrpN grown in MM and MM supplemented with PCA. […] Since PCA represses the expression of several T3SS genes such as hrpN, the effect of PCA on protein production of HrpN was further examined.

Ech3937 = experiment: Growth of Ech3937 in MM supplemented with compound
Description: Phenolic compounds constitute an important class of organic substances produced by plants. The phenolic compound SA is a signaling molecule that plays a role in host defenses. OCA and TCA are the biosynthetic precursors of SA and are also reported to induce the expression of defense-related genes in plants. OCA, TCA, and SA were examined to elucidate their effects on the expression of T3SS genes. The expression of the T3SS gene hrpN was examined in MM and MM supplemented with OCA, TCA, and SA, at concentrations of 0.05, 0.1, and 0.2 mM, respectively. FIGS. 2A and 2B show the promoter activities of hrpN in Dickeya dadantii 3937 (Ech3937) grown in MM and MM supplemented with 0.05, 0.1, and 0.2 mM OCA, TCA, and SA at 12 h (FIG. 2A) and 24 h (FIG. 2B) post-inoculation. GFP intensity was determined on gated populations of bacterial cells by flow cytometry and analyzed with the Cell Quest software (BD Biosciences, San Jose, Calif.). The growth of Ech3937 in MM supplemented with different concentrations of OCA, TCA and SA was recorded. Compared with MM alone, the average GFP fluorescence intensity of bacterial cells of Ech3937 (phrpN) was increased approximately 4-fold when 0.05 mM of OCA and TCA were added to the medium (FIGS. 2A, 2B).
The expression of the T3SS gene hrpA was further examined in MM and MM supplemented with PCA at concentrations of 0.001, 0.005, 0.01, 0.05 and 0.1 mM respectively. FIGS. 16A and 16B show the promoter activities of hrpA in Dickeya dadantii 3937 (Ech3937) grown in minimum medium (MM) and MM supplemented with different amount of p-coumaric acid (PCA) at 12 h (FIG. 16A) and 24 h (FIG. 16B) post-inoculation. GFP intensity was determined on gated populations of bacterial cells by flow cytometry and analyzed with the Cell Quest software (BD Biosciences, San Jose, Calif.). The growth of Ech3937 in MM supplemented with different concentrations of PCA was recorded. Compared with MM alone, the average GFP fluorescence intensity of bacterial cells of Ech3937 (phrpA) was reduced more than 4-fold when 0.05 and 0.1 mM of PCA were added to the medium (FIGS. 16A, 16B).

hrpA mRNA = experiment: qRT-PCR relative mRNA level of hrpA
Protocol: as §1

rsmB mRNA = experiment: qRT-PCR relative mRNA level of rsmB
Protocol: as §1

hrpL mRNA = experiment: qRT-PCR relative mRNA level of hrpL
Protocol: as §1

hrpN mRNA = experiment: qRT-PCR relative mRNA level of hrpN; details: 0.1 mM PCA, P=0.001 (FIG. 14)
Protocol: as §1

gacA mRNA = experiment: qRT-PCR relative mRNA level of gacA; details: MM supplemented with OCA, p>0.5 (FIG. 4)
Protocol: as §1

hrpY mRNA = experiment: qRT-PCR relative mRNA level of hrpY; details: MM supplemented with OCA, p>0.5 (FIG. 4)
Protocol: as §1

[1] = MM supplemented with 0.1 mM OCA (FIG. 4)

Structure (SMILES)	dspE mRNA compared with MM alone (normalized to 1), qRT-PCR (dspE mRNA; 0.1 mM PCA, P=0.001 (FIG. 14))	amount of HrpN protein compared with MM alone (HrpN)	bacterial growth of Ech3937 in MM with PCA (Ech3937; PCA 0.001 to 0.1 mM in MM (FIGS. 16A, 16B))	hrpA mRNA compared with MM alone (normalized to 1), qRT-PCR (hrpA mRNA; 0.1 mM PCA, P=0.001 (FIG. 14))	rsmB gene expression, MM vs supplemented MM (qRT-PCR) (rsmB mRNA; MM supplemented with PCA, p=0.928 (FIG. 14))	hrpL mRNA relative expression ratio (hrpL mRNA; MM supplemented with PCA vs MM alone (normalized to 1), P=0.001)	hrpN mRNA compared with MM alone (normalized to 1), qRT-PCR (hrpN mRNA)	dspE mRNA compared with MM alone (qRT-PCR) (dspE mRNA; [1])	gacA gene expression, MM vs supplemented MM (qRT-PCR) (gacA mRNA)	bacterial growth of Ech3937 in supplemented MM (Ech3937; 0.05, 0.1 and 0.2 mM in MM (FIGS. 2A, 2B))	hrpA mRNA compared with MM alone (qRT-PCR) (hrpA mRNA; [1])	rsmB mRNA relative expression ratio (rsmB mRNA; Ech3937 in supplemented MM vs MM alone (normalized to 1))	hrpL mRNA compared with MM alone (qRT-PCR) (hrpL mRNA; 0.1 mM OCA, 12 h of growth, P<0.01)	hrpY gene expression, MM vs supplemented MM (qRT-PCR) (hrpY mRNA)
O=C(O)/C=C/c1ccc(O)cc1 [PCA, p-coumaric acid]	significantly lower amount of mRNA	lower amount of HrpN	Inhibition of bacterial growth was not observed	significantly lower amount of mRNA	No significant difference	0.039	significantly lower amount of mRNA	–	–	–	–	–	–	–
O=C(O)/C=C/c1ccccc1O [OCA, o-coumaric acid]	–	–	–	–	–	–	–	significantly higher amount	No significant difference	No reduction of bacterial growth	significantly higher amount	1.4	about 3 fold	No significant difference
